The NIST ThermoML archive (doi:10.1016/j.fluid.2008.06.004)
Values joined by “and” are separate entries in the source; they are usually repeats but may differ in a detail not shown here. Equal values may be shown once. ± gives the expanded uncertainty stated by the source.

Columns and labels:
[1] = Liquid; for mass density: 298.15 K, 101.33 kPa
[2] = refractive index (Na D-line) (dimensionless); conditions: 298.15 K; 101.33 kPa; Liquid; Standard Abbe refractometry

SMILES: CCC(C)=O [butanone]
- mass density [1]: 799.62 ± 0.35 kg/m3
- vapor or sublimation pressure ([1]; 308.22 K, Ebulliometric method (Recirculating still)): 18.73 ± 0.43 kPa
- vapor or sublimation pressure ([1]; 309.55 K, Ebulliometric method (Recirculating still)): 20 ± 0.4 kPa
- vapor or sublimation pressure ([1]; 310.48 K, Ebulliometric method (Recirculating still)): 20.76 ± 0.42 kPa
- vapor or sublimation pressure ([1]; 312.56 K, Ebulliometric method (Recirculating still)): 22.74 ± 0.44 kPa
- vapor or sublimation pressure ([1]; 313.8 K, Ebulliometric method (Recirculating still)): 24.01 ± 0.46 kPa
- vapor or sublimation pressure ([1]; 316.39 K, Ebulliometric method (Recirculating still)): 26.73 ± 0.47 kPa
- vapor or sublimation pressure ([1]; 318.16 K, Ebulliometric method (Recirculating still)): 28.71 ± 0.53 kPa
- vapor or sublimation pressure ([1]; 319.63 K, Ebulliometric method (Recirculating still)): 30.72 ± 0.56 kPa
- vapor or sublimation pressure ([1]; 321.2 K, Ebulliometric method (Recirculating still)): 32.71 ± 0.58 kPa
- vapor or sublimation pressure ([1]; 324.08 K, Ebulliometric method (Recirculating still)): 36.72 ± 0.6 kPa
- vapor or sublimation pressure ([1]; 326.86 K, Ebulliometric method (Recirculating still)): 40.72 ± 0.64 kPa
- vapor or sublimation pressure ([1]; 329.31 K, Ebulliometric method (Recirculating still)): 44.73 ± 0.72 kPa
- vapor or sublimation pressure ([1]; 331.49 K, Ebulliometric method (Recirculating still)): 48.73 ± 0.77 kPa
- vapor or sublimation pressure ([1]; 333.61 K, Ebulliometric method (Recirculating still)): 52.73 ± 0.8 kPa
- vapor or sublimation pressure ([1]; 335.64 K, Ebulliometric method (Recirculating still)): 56.74 ± 0.84 kPa
- vapor or sublimation pressure ([1]; 337.53 K, Ebulliometric method (Recirculating still)): 60.73 ± 0.88 kPa
- vapor or sublimation pressure ([1]; 339.37 K, Ebulliometric method (Recirculating still)): 64.72 ± 0.93 kPa
- vapor or sublimation pressure ([1]; 341.07 K, Ebulliometric method (Recirculating still)): 68.73 ± 0.98 kPa
- vapor or sublimation pressure ([1]; 342.7 K, Ebulliometric method (Recirculating still)): 72.72 ± 1 kPa
- vapor or sublimation pressure ([1]; 344.29 K, Ebulliometric method (Recirculating still)): 76.74 ± 1.1 kPa
- vapor or sublimation pressure ([1]; 345.74 K, Ebulliometric method (Recirculating still)): 80.72 ± 1.1 kPa
- vapor or sublimation pressure ([1]; 347.19 K, Ebulliometric method (Recirculating still)): 84.73 ± 1.1 kPa
- vapor or sublimation pressure ([1]; 348.59 K, Ebulliometric method (Recirculating still)): 88.73 ± 1.2 kPa
- vapor or sublimation pressure ([1]; 349.95 K, Ebulliometric method (Recirculating still)): 92.74 ± 1.2 kPa
- vapor or sublimation pressure ([1]; 350.49 K, Ebulliometric method (Recirculating still)): 94.41 ± 1.3 kPa
- vapor or sublimation pressure ([1]; 351.4 K, Ebulliometric method (Recirculating still)): 97.29 ± 1.3 kPa
- vapor or sublimation pressure ([1]; 352.68 K, Ebulliometric method (Recirculating still)): 101.32 ± 1.3 kPa and 101.3 ± 1.3 kPa
- vapor or sublimation pressure ([1]; 354.04 K, Ebulliometric method (Recirculating still)): 105.95 ± 1.4 kPa
- vapor or sublimation pressure ([1]; 355.29 K, Ebulliometric method (Recirculating still)): 110.24 ± 1.4 kPa
- vapor or sublimation pressure ([1]; 356.39 K, Ebulliometric method (Recirculating still)): 114.07 ± 1.4 kPa
- vapor or sublimation pressure ([1]; 357.91 K, Ebulliometric method (Recirculating still)): 119.51 ± 1.5 kPa
- vapor or sublimation pressure ([1]; 359.12 K, Ebulliometric method (Recirculating still)): 124.08 ± 1.5 kPa
- vapor or sublimation pressure ([1]; 360.32 K, Ebulliometric method (Recirculating still)): 128.72 ± 1.6 kPa
- vapor or sublimation pressure ([1]; 361.22 K, Ebulliometric method (Recirculating still)): 132.46 ± 1.6 kPa
- vapor or sublimation pressure ([1]; 362.08 K, Ebulliometric method (Recirculating still)): 135.91 ± 1.6 kPa
- refractive index [2]: 1.37614 ± 0.00068

SMILES: CCO [ethanol]
- mass density [1]: 786.47 ± 0.5 kg/m3
- vapor or sublimation pressure ([1]; 315.41 K, Ebulliometric method (Recirculating still)): 20 ± 0.9 kPa
- vapor or sublimation pressure ([1]; 351.46 K, Ebulliometric method (Recirculating still)): 101.3 ± 0.9 kPa
- refractive index [2]: 1.35939 ± 0.00068

SMILES: CCCO [propan-1-ol]
- mass density [1]: 799.44 ± 0.23 kg/m3
- vapor or sublimation pressure ([1]; 332.67 K): 20 ± 0.9 kPa
- vapor or sublimation pressure ([1]; 370.21 K): 101.3 ± 0.9 kPa
- refractive index [2]: 1.38305 ± 0.00068

SMILES: CC(C)O [propan-2-ol]
- mass density [1]: 780.75 ± 0.24 kg/m3
- vapor or sublimation pressure ([1]; 319.8 K, Ebulliometric method (Recirculating still)): 20 ± 0.9 kPa
- vapor or sublimation pressure ([1]; 355.4 K, Ebulliometric method (Recirculating still)): 101.3 ± 0.9 kPa
- refractive index [2]: 1.37497 ± 0.00068
